# Data from patent US20030068289A1, “Skin treatment” (Unilever Home & Personal Care USA, Division of Conopco, Inc., priority 2001, published 2003).
# What was measured:
# scalp stratum corneum = tested on: scalp stratum corneum
# Description: (§1) Panellists consisting of males and females were used. Their scalps were assessed to confirm they were suffering from dandruff. The scalps were divided into two, from the centre of the forehead to the nape of the neck. Four sites of similar scalp condition, two on each side of the head, were identified.
# (§2) Panellists were assessed for scalp condition then suitable subjects given a placebo shampoo (ie. non anti-dandruff) to use for approximately 5 weeks. They were then asked to return, having not washed their hair or applied products to it for 48 hours. They were re-assessed then tape stripped at one site on each side o: the head ([…]). They then returned to be salon washed, by salon operators, 3 times their week with ½ of each head washed in the placebo and the other ½ in a shampoo containing 1% ZnPTO. After approximately 4 weeks, they were assessed and tape stripped again an adjacent sites to the first two.
# Samples were collected by parting the hair and lightly swabbing with an alcohol swab to remove excess sebum. A total of eight sequential tapestrips were taken from each site. These were stored frozen until required for analysis.
# The corneocytes were removed from the tapes by sonicating in methanol and the free lipid was extracted from them in a chloroform/methanol mixture, which was then dried under nitrogen. The residue was reconstituted in chloroform arid the lipid species separated on amino-propyl bonded silica gel columns.
# The lipids were then separated and quantified using HPTLC. The lipids analysed were total fatty acids, cholesterol, triglycerides and ceramides. The ceramides were separated into the individual ceramides that are normally seen. The covalently bound lipids were not analysed here. The protein content of the samples were measured and the lipid levels expressed as ng lipid per μg protein. The individual ceramides were also expressed as relative % of total ceramides.
# dandruff = conditions: 7 subjects; also decreased for placebo
# Description: as §1, §2
# [1] = after vs before, significant only after the ZnPTO treatment
substance,measurement,setting,value
zinc pyrithione [ZnPTO],Relative % lipids in scalp stratum corneum: Cholesterol,"scalp stratum corneum; After ZnPTO, approx 4 weeks, spread 1.4 in row below, Before ZnPTO 11.6 ± 4.5",8.8%
same,Relative % lipids in scalp stratum corneum: Ceramides,"scalp stratum corneum; After ZnPTO, approx 4 weeks, spread 3.8 in row below, Before ZnPTO 31.0 ± 8.1",16.4%
same,Relative % lipids in scalp stratum corneum: Fatty Acids,"scalp stratum corneum; After ZnPTO, approx 4 weeks, spread 16.6 in row below, Before ZnPTO 36.0 ± 12.5",31.8%
same,Relative % lipids in scalp stratum corneum: Triglycerides,"scalp stratum corneum; After ZnPTO, approx 4 weeks, spread 19.2 in row below, Before ZnPTO 21.4 ± 4.8",43.0%
same,Mass level of lipid: Fatty Acids,"scalp stratum corneum; After ZnPTO: shampoo containing 1% ZnPTO, 3 washes per week, approx 4 weeks, half-head, spread 748.6 in row below, Before ZnPTO 364.9 ± 231.9",1518.1 ng lipid per μg protein
same,Mass level of lipid: Cholesterol,"scalp stratum corneum; After ZnPTO: shampoo containing 1% ZnPTO, approx 4 weeks, spread 221.8 in row below, Before ZnPTO 108.9 ± 44.3",478.3 ng lipid per μg protein
same,Mass level of lipid: Ceramides,"scalp stratum corneum; After ZnPTO: shampoo containing 1% ZnPTO, approx 4 weeks, spread 243.9 in row below, Before ZnPTO 284.3 ± 62.4",841.5 ng lipid per μg protein
same,Mass level of lipid: Triglycerides,"scalp stratum corneum; After ZnPTO: shampoo containing 1% ZnPTO, approx 4 weeks, spread 1911.2 in row below, Before ZnPTO 208.5 ± 77.1",2539.7 ng lipid per μg protein
same,Mass level of lipid: Total Lipid,"scalp stratum corneum; After ZnPTO: shampoo containing 1% ZnPTO, approx 4 weeks, spread 2056.0 in row below, Before ZnPTO 966.6 ± 282.5",5377.6 ng lipid per μg protein
same,Ceramide 6i as % of total ceramides,"scalp stratum corneum; After ZnPTO, spread 2.0 in row below, Before ZnPTO 9.2 ± 1.1",8.0%
same,Ceramide 6ii as % of total ceramides,"scalp stratum corneum; After ZnPTO, spread 2.1 in row below, Before ZnPTO 13.8 ± 2.1",8.0%
same,Ceramide 3a as % of total ceramides,"scalp stratum corneum; After ZnPTO, spread 2.8 in row below, Before ZnPTO 12.4 ± 1.7",19.2%
same,Ceramide 3 as % of total ceramides,"scalp stratum corneum; After ZnPTO, spread 4.0 in row below, Before ZnPTO 11.8 ± 3.9",5.9%
same,Ceramide 1 as % of total ceramides,"scalp stratum corneum; After ZnPTO, spread 5.3 in row below, Before ZnPTO 11.3 ± 4.1",14.6%
same,Ceramide 2 as % of total ceramides,"scalp stratum corneum; After ZnPTO, spread 5.4 in row below, Before ZnPTO 19.4 ± 4.5",22.3%
same,Ceramide 4/5 as % of total ceramides,"scalp stratum corneum; After ZnPTO, spread 5.9 in row below, Before ZnPTO 22.2 ± 3.0",22.1%
same,"Relative composition of the samples after treatment, placebo vs ZnPTO",scalp stratum corneum; after treatment,no significant differences
same,"All the lipids measured, mass levels after ZnPTO treatment compared with before treatment",scalp stratum corneum; after vs before treatment,significantly increased
same,Change in relative % cholesterol with treatment,scalp stratum corneum; after vs before treatment,do not change
same,Change in relative % fatty acid with treatment,scalp stratum corneum; after vs before treatment,do not change
same,Change in relative % ceramide after treatment,"scalp stratum corneum; after vs before treatment, also after placebo",significantly decreases
same,Change in % triglyceride after treatment,"scalp stratum corneum; after vs before treatment, significant for ZnPTO","increase in % triglyceride, which is significant for ZnPTO"
same,Change in relative % ceramide 6ii after treatment,"scalp stratum corneum; after vs before, after both treatments",statistically significant decrease
same,Change in relative % ceramide 3a after treatment,scalp stratum corneum; [1],increase in ceramide 3a
same,Change in relative % ceramide 3 after treatment,scalp stratum corneum; [1],decrease in ceramide 3
same,"Level of ceramide, side treated with ZnPTO vs side treated with placebo",scalp stratum corneum; sites sampled after treatment,significantly higher
same,"Level of cholesterol, side treated with ZnPTO vs side treated with placebo",scalp stratum corneum; sites sampled after treatment,significantly higher
same,Mean dandruff scores after treatment compared with before treatment,dandruff,decreased
